Test system: chronic cyclophosphamide (CYP)-induced overactive bladder mouse model
Assay: Overactive Bladder In Vivo Model
Conditions: tadalafil 10 mg/kg orally daily; CYP-induced OAB female C57/B16 mice; day 8, 4 hour urine collection
Method: Overactive Bladder In Vivo Model
The in vivo effect of PDE4 inhibitors on OAB is studied with a chronic cyclophosphamide (CYP)-induced overactive bladder mouse model adapted from Boudes et al., Neurourol. Urodynam. 2011. In a typical study, female C57/B16 mice, approximately 20 grams in body weight (Harlan Laboratories, Inc., Indianapolis, Ind.) are used. Mice are randomized by body weight into groups one day before the start of the study. Mice are individually housed and maintained on a 12 hour light/dark cycle at 22° C. with ad lib access to food (TD 2014 with 0.72% Ca and 0.61% P, 990 IU/g D3, Teklad™, Madison, Wis.) and water Animals receive cyclophosphamide (dissolved in physiological saline) i.p. administration at 100 mg/kg on days 1, 3, 5, and 7 to chronically induce OAB. The vehicle control group received daily vehicle (HEC 1%/Tween 80 0.25%/Antifoam 0.05%) administered orally. All other groups are administered orally tadalafil at 10 mg/kg in combination with 0.1, 1.0, or 10.0 mg/kg of test compound daily at a volume of 200 μl/mouse. On day 8, mice are housed in urine collection chambers with a filter paper placed underneath chamber. Prior to urine collection, gavages of 1 ml water are given to each mouse. […] Voiding frequency and volume/void are calculated using Image J software (NIH). Data are statistically analyzed with JMP8® software (Cary, N.C.). […]

Question: What does the source list for `CN1CC(=O)N2[C@H](c3ccc4c(c3)OCO4)c3[nH]c4ccccc4c3C[C@@H]2C1=O` [tadalafil]?
Answer: urinary frequency: no significant activity; volume per void: no significant activity

Target: PDE4B (Homo sapiens (Human), UniProt Q07343)
Sequence (Q07343 whole entry): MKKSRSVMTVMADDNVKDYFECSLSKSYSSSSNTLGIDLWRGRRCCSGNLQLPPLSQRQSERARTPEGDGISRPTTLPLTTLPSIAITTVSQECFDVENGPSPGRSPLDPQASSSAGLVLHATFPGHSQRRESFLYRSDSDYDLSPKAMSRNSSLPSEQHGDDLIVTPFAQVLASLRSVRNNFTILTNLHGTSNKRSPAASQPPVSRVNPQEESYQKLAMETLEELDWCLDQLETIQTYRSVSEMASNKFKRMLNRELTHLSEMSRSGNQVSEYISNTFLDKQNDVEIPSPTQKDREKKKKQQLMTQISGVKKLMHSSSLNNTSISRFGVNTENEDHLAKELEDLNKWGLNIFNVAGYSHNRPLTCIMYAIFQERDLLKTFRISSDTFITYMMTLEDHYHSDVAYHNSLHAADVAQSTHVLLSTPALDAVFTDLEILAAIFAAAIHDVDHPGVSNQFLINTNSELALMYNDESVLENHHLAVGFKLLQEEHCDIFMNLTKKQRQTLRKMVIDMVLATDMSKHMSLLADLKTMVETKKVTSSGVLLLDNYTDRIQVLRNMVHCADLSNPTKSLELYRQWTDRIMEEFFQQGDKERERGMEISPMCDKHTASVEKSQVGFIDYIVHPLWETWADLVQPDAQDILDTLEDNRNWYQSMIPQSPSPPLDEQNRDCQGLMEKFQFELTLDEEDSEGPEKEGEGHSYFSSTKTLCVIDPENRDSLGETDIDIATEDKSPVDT
Assay: PDE4 Inhibition In Vitro Assay (PDE4B)
Type: biochemical
Conditions: human recombinant PDE4B; 15 minutes at 30° C.; 2.5% DMSO
Method: PDE4 Inhibition In Vitro Assay
The phosphodiesterase assays are performed essentially according to the method described in Loughney, K., et al., J. Biol. Chem., 271, pp. 796-806 (1996). PDE4A, PDE4B, PDE4C, PDE4D, and PDE5 human recombinant proteins are expressed and purified from Saccharomyes cerevisiae that lack endogenous PDEs. The phosphodiesterase enzymes are diluted on ice with enzyme dilution buffer (25 mM Tris, pH 7.5, 0.1 mM DTT, 5.0 mM MgCl2, 100 mM NaCl, 5 μM ZnSO4, 100 μg/mL BSA) to give approximately 20%-40% hydrolysis of cyclic nucleotide monophosphate (cNMP) in the absence of inhibitor.
The stock solution of test compounds are diluted on the Beckman BioMek™ 1000 workstation to span a concentration range of 4.5 log units in 0.5 log increments. The DMSO concentration in the final test system is 2.5% for all PDE enzymes. The final test compound concentration tested ranged from 0.03 nM to 1 μM.
The assay is performed in a 96-well microtiter plate format on a Beckman BioMek™ 1000 robotic station. Each row of the plate represents a 10-point dose response curve containing blank (no enzyme), non-inhibited control, and inhibitor dilutions spanning 4.5 log units in concentration in 0.5 log increments. Assay stock solutions are loaded into the Biomek™ reservoirs (water, inhibitor diluent [2.5% or 10% DMSO], 5× PDE assay buffer, substrate, inhibitor solutions, enzyme solutions, snake venom nucleotidase, and charcoal suspension). The reaction is initiated with enzyme, and incubated for 15 minutes at 30° C. An excess of Crotalus atrox snake venom nucleotidase (5 μL/well) is then added and the mixture is incubated for an additional 3 minutes. The reaction is terminated by the addition of 200 μL of activated charcoal suspension, after which the plate is centrifuged for 5 minutes at 750×g. A transfer program is run in which 200 μL of supernatant is removed and placed into a new plate. The amount of radioactivity released as phosphate is determined in a Wallac MicroBeta Plate™ counter.
The reduced data at each concentration of inhibitor is analyzed using a four-, three- or two-parameter logistic dose response model to provide an IC50 value.

Question: Which IC50 does the source give for `COc1ccc([C@@H]2CN(C(=O)[C@@H](O)CO)C[C@@]2(C)[C@@H](C)O)cc1OC1CN(c2ncccn2)C1` [Example 5, (2S)-3-[(3S,4S)-3-[(1R)-1-hydroxyethyl]-4-{4-methoxy-3-[(1-pyrimidin-2-ylazetidin-3-yl)oxy]phenyl}-3-methylpyrroldiin-1-yl]-3-oxopropane-1,2-diol] here?
Answer: Its IC50 is 1.5 nM.

Question: For `COc1ccc([C@@H]2CN(C(=O)[C@@H](O)CO)C[C@@]2(C)[C@@H](C)O)cc1OC1CN(c2ccc(Cl)cn2)C1` [Example 12, (2S)-3-[(3S,4S)-3-[(1R)-1-hdyroxyethyl]-4-(4-methoxy-3-{[1-(5-chloropyridin-2-yl)azetidin-3-yl]oxy}phenyl)-3-methylpyrrolidin-1-yl]-3-oxopropane-1,2-diol], which IC50 is on record?
Answer: Its IC50 is 0.16 nM.

Question: For `COc1ccc([C@@H]2CN(C(=O)[C@@H](O)CO)C[C@@]2(C)[C@@H](C)O)cc1OC1CN(c2cccnc2)C1` [Example 2, (2S)-3-[(3S,4S)-3-[(1R)-1-hydroxyethyl]-4-{4-methoxy-3-[(1-pyridin-3-ylazetidin-3-yl)oxy]phenyl}-3-methylpyrrolidin-1-yl]-3-oxopropane-1,2-diol], which IC50 is on record?
Answer: The IC50 was 1.8 nM.

Question: With `COc1ccc([C@@H]2CN(C(=O)[C@@H](O)CO)C[C@@]2(C)[C@@H](C)O)cc1OC1CN(c2cc(Cl)ncn2)C1` [Example 8, (2S)-3-[(3S,4)S-3-[(1R)-1-hydroxyethyl]-4-{4-methoxy-3-[(1-(6-chloropyrimidin-4-yl)azetidin-3-yl)oxy]phenyl}-3-methylpyrrolidin-1-yl]-3-oxopropane-1,2-diol] as the compound, how does the IC50 read?
Answer: The IC50 was 0.53 nM.

Question: How did the IC50 turn out when `COc1ccc([C@@H]2CN(C(=O)[C@@H](O)CO)C[C@@]2(C)[C@@H](C)O)cc1OC1CN(c2cc(C#N)ccn2)C1` [Example 7, (2S)-3-[(3S,4S)-3-[(1R)-1-hydroxyethyl]-4-(4-methoxy-3-{[1-(4-cyanopyridin-2-yl)azetidin-3-yl]oxy}phenyl)-3-methylpyrrolidin-1-yl]-3-oxopropane-1,2-diol] was run?
Answer: The IC50 was 0.44 nM.

Question: With `[2H]C([2H])([2H])c1ccc(N2CC(Oc3cc([C@@H]4CN(C(=O)[C@@H](O)CO)C[C@@]4(C)[C@@H](C)O)ccc3OC)C2)nc1` [Example 14, (S)-2,3-dihydroxy-1-((3S,4S)-3-((R)-1-hydroxyethyl)-4-(4-methoxy-3-((1-(5-(methyl-D3)pyridin-2-yl)azetidin-3-yl)oxy)phenyl)-3-methylpyrrolidin-1-yl)propan-1-one] as the compound, how does the IC50 read?
Answer: The IC50 was 0.13 nM.

Question: `COc1ccc([C@@H]2CN(C(=O)[C@@H](O)CO)C[C@@]2(C)[C@@H](C)O)cc1OC1CN(c2ccncn2)C1` [Example 13, (2S)-3-[(3S,4S)-3-[(1R)-1-hydroxyethyl]-4-(4-methoxy-3-{[1-(pyrimidin-4-yl)azetidin-3-yl]oxy}phenyl)-3-methylpyrrolidin-1-yl]-3-oxopropane-1,2-diol] was tested. Which IC50 did it give?
Answer: Its IC50 is 3.8 nM.

Question: Which IC50 does the source give for `COc1ccc([C@@H]2CN(C(=O)[C@@H](O)CO)C[C@@]2(C)[C@@H](C)O)cc1OC1CN(c2ccc(C#N)cn2)C1` [Example 6, (2S)-3-[(3S,4S)-3-[(1R)-1-hydroxyethyl]-4-(4-methoxy-3-{[1-(5-cyanopyridin-2-yl)azetidin-3-yl]oxy}phenyl)-3-methylpyrrolidin-1-yl]-3-oxopropane-1,2-diol] here?
Answer: Its IC50 is 0.31 nM.

Question: With `COc1ccc([C@@H]2CN(C(=O)[C@@H](O)CO)C[C@@]2(C)[C@@H](C)O)cc1OC1CN(c2ccncc2)C1` [Example 3, (2S)-3-[(3S,4S)-3-[(1R)-1-hydroxyethyl]-4-{4-methoxy-3-[(1-pyridin-4-ylazetidin-3-yl)oxy]phenyl}-3-methylpyrrolidin-1-yl]-3-oxopropane-1,2-diol] as the compound, how does the IC50 read?
Answer: The IC50 was 7.7 nM.

From patent publication US10781202B2, “Azetidinyloxyphenylpyrrolidine compounds” (Eli Lilly and Company, priority 2014, dated 2020)
